Reference: patent US4264774A, “2-Thiophenesulfonyl bromides” (The Dow Chemical Company, priority 1976, dated 1981)
≈ marks a conversion by molar mass, not a printed value.

Assays:
Type in all cases: cell-based
[1] = test system: A. niger; assay: in vitro agar Petri dish dilution test, An; details: Aspergillus niger, 100% inhibition
From the text: (§1) The compounds of this invention have antimicrobial utility. In conventional in vitro agar Petri dish dilution tests, the following compounds and some corresponding art compounds gave 100% inhibition of the following organisms at the indicated concentrations in parts per million.

[2] = test system: C. albicans; assay: in vitro agar Petri dish dilution test, Ca; details: Candida albicans, 100% inhibition
From the text: as §1

[3] = test system: B. subtilis; assay: in vitro agar Petri dish dilution test, Bs; details: Bacillus subtilis, 100% inhibition
From the text: as §1

[4] = test system: C. pelliculosa; assay: in vitro agar Petri dish dilution test, Cp; details: Hansenula anomala, 100% inhibition
From the text: as §1

[5] = test system: S. aureus; assay: in vitro agar Petri dish dilution test, Sa; details: Staphylococcus aureus, 100% inhibition
From the text: as §1

[6] = test system: A. aerogenes; assay: in vitro agar Petri dish dilution test, Aa; details: Klebsiella aerogenes, 100% inhibition
From the text: as §1

[7] = test system: T. mentagrophytes; assay: in vitro agar Petri dish dilution test, Tm; details: Trichophyton mentagrophytes, 100% inhibition
From the text: as §1
Tm = T. mentagrophytes -

[8] = test system: Pseudomonas Sp. Strain 10; assay: in vitro agar Petri dish dilution test, Ps 10; details: 100% inhibition
From the text: as §1
Ps 10 = Pseudomonas Sp. Strain 10

[9] = test system: P. pullulans; assay: in vitro agar Petri dish dilution test, Pp; details: 100% inhibition
From the text: as §1

[10] = test system: T. Sp. Madison P42; assay: in vitro agar Petri dish dilution test, Tr 42; details: 100% inhibition
From the text: as §1
Tr 42 = T. Sp. Madison P42

[11] = test system: S. typhosa; assay: in vitro agar Petri dish dilution test, St; details: for MIC: 100% inhibition
From the text: as §1

[12] = test system: C. IPS; assay: in vitro agar Petri dish dilution test, CI; details: 100% inhibition
From the text: as §1

[13] = test system: R. nigricans; assay: in vitro agar Petri dish dilution test, Rn; details: Rhizopus stolonifer, 100% inhibition
From the text: as §1

[14] = test system: M. phlei; assay: in vitro agar Petri dish dilution test, Mp; details: Mycolicibacterium phlei, 100% inhibition
From the text: as §1

[15] = test system: E. coli; assay: in vitro agar Petri dish dilution test, Ec; details: Escherichia coli, 100% inhibition
From the text: as §1

[16] = test system: C. pelliculosa; assay: in vitro agar Petri dish dilution test, Cp; details: Hansenula anomala
[17] = test system: S. aureus; assay: in vitro agar Petri dish dilution test, Sa; details: Staphylococcus aureus
[18] = test system: B. subtilis; assay: in vitro agar Petri dish dilution test, Bs; details: Bacillus subtilis

SMILES	MIC [1] [µg/mL]	MIC [2] [µg/mL]	MIC [3] [µg/mL]	MIC [4] [µg/mL]	MIC [5] [µg/mL]	MIC [6] [µg/mL]	MIC [7] [µg/mL]	MIC [8] [µg/mL]	MIC [9] [µg/mL]	MIC [10] [µg/mL]	MIC [11] [µg/mL]	MIC [12] [µg/mL]	MIC [13] [µg/mL]	MIC [14] [µg/mL]	MIC [15] [µg/mL]	inhibition at 500 ppm [11] [%]	inhibition at 500 ppm [16] [%]	inhibition at 500 ppm [17] [%]	inhibition at 500 ppm [18] [%]
O=S(=O)(Cl)c1sc(Br)c(Br)c1Br [3,4,5-Br3, reference compound]	> 100	> 100	> 100	> 100	> 100	> 100	> 100												
O=S(=O)(Br)c1sc(Br)c(Br)c1Br [3,4,5-Br3]	50 (≈ 108 µM)	100 (≈ 216 µM)	50 (≈ 108 µM)	50 (≈ 108 µM)	50 (≈ 108 µM)	> 100	50 (≈ 108 µM)	50 (≈ 108 µM)	50 (≈ 108 µM)	50 (≈ 108 µM)									
O=S(=O)(Cl)c1sc(Br)cc1Br [3,5-Br2, reference compound]	> 100	> 100	> 100	> 100	> 100	> 100	> 100	> 100	> 100	> 100	> 100	> 100							
O=S(=O)(Br)c1sc(Br)cc1Br [3,5-Br2]		100 (≈ 260 µM)	50 (≈ 130 µM)	50 (≈ 130 µM)	50 (≈ 130 µM)	50 (≈ 130 µM)	50 (≈ 130 µM)	50 (≈ 130 µM)	100 (≈ 260 µM)	100 (≈ 260 µM)	50 (≈ 130 µM)								
O=S(=O)(Cl)c1cc(Br)c(Br)s1 [4,5-Br2, reference compound]	> 100	> 100	> 100	100 (≈ 294 µM)	> 100	> 100	100 (≈ 294 µM)												
O=S(=O)(Br)c1cc(Br)c(Br)s1 [4,5-Br2]	100 (≈ 260 µM)	100 (≈ 260 µM)	50 (≈ 130 µM)	100 (≈ 260 µM)	50 (≈ 130 µM)	100 (≈ 260 µM)	100 (≈ 260 µM)	50 (≈ 130 µM)	100 (≈ 260 µM)	100 (≈ 260 µM)	50 (≈ 130 µM)								
O=S(=O)(Br)c1ccc(Br)s1 [5-Br, 5-Bromo-2-thiophenesulfonyl Bromide]	100	100	100	100	500	500	100	100	100	100			100	500	500				
CCc1ccc(S(=O)(=O)Br)s1 [5-C2 H5]	100 (≈ 392 µM)	500 (≈ 1960 µM)	100 (≈ 392 µM)	100 (≈ 392 µM)	500 (≈ 1960 µM)	500 (≈ 1960 µM)	100 (≈ 392 µM)	100 (≈ 392 µM)	100 (≈ 392 µM)	100 (≈ 392 µM)			100 (≈ 392 µM)		500 (≈ 1960 µM)				
CCc1ccc(S(=O)(=O)Cl)s1 [5-C2 H5]																50			
Cc1ccc(S(=O)(=O)Br)s1 [5-CH3]	> 100	> 100	> 100	> 100	100 (≈ 415 µM)	> 100	> 100	50 (≈ 207 µM)	> 100	> 100	50 (≈ 207 µM)	> 100							
Cc1ccc(S(=O)(=O)Cl)s1 [5-CH3]																50			
O=S(=O)(Br)c1ccc(Cl)s1 [5-Cl, 5-Chloro-2-thiophenesulfonyl Bromide]	100	100	500	100	500	500	100	500	100	100			100	500	100				
CCCCc1ccc(S(=O)(=O)Cl)s1 [5-butyl, reference compound]	> 500	> 500				> 500	500 (≈ 2090 µM)		> 500		> 500				> 500		50	50	50
CCCCc1ccc(S(=O)(=O)Br)s1 [5-butyl]	100 (≈ 353 µM)	500 (≈ 1770 µM)	100 (≈ 353 µM)	100 (≈ 353 µM)	500 (≈ 1770 µM)	500 (≈ 1770 µM)	100 (≈ 353 µM)	500 (≈ 1770 µM)	100 (≈ 353 µM)	100 (≈ 353 µM)			100 (≈ 353 µM)		500 (≈ 1770 µM)				
O=S(=O)(Br)c1cccs1 [H, 2-Thiophenesulfonyl Bromide]	100	100	100	100	500	100	100	100	100	100			100	100	100				
O=S(=O)(Cl)c1cccs1 [H, 2-thiophenesulfonyl chloride, reference compound]	> 500	> 500	> 500	> 500	> 500	> 500	> 500	> 500	> 500	> 500	> 500	> 500	> 500	500	> 500				
